Drawing on patent US9353096B2, “Substituted phenylcarbamate compounds” (Hoffmann-La Roche Inc., priority 2012, dated 2016), this text covers IC50 for 22 compounds.

Structures are written as SMILES. Counter-ions that a name gives are not always drawn.

The target in the experiment is hTRPA1 (Homo sapiens, UniProt O75762). Kind of experiment: Dose response calcium flux (FLIPR) assay, ChanTest hTRPA1-CHO stably transfected cell line, cinnamaldehyde agonist. Type of experiment: cell-based. The conditions noted are these: CHO-K1 Tet-On hTRPA1 cells, 100 uM cinnamaldehyde agonist, 30 min preincubation. The protocol: Dose Response Assay:ChanTest hTRPA1-CHO Stably Transfected Cell Line
CHO-K1 Tet-On_HOMSA_TRPA1_Clone_20
Growth Media for CHO-K1 Tet-On_HOMSA_TRPA1_Clone_20 • Ham's F-12 with 10% tetracycline-free FBS • 1× penicillin-streptomycin • 1× glutamax • 0.01 mg/ml Blasticidin • 0.40 mg/ml Zeocin • The cell line doubling rate was ˜15 h. […] Experiments were run at 24 h post induction.
Plating Conditions CHOK1/TRPA1 Cells: • Harvested cells with 0.025% trypsin/EDTA. • Resuspended cells in growth media without selection antibiotics. • Measured cell density and diluted to 2.4×10^5 cells/ml in media containing 1 ug/ml Doxycycline Plate 25 ul/well into 384 well black/clear tissue culture-treated plates. • Incubated overnight at 37° C.
Replacement Buffer: Hank's Balanced Salt Solution, 20 mM HEPES along with 0.005% BSA and 2× Probenecid
Dye Loading Buffer: Cal-3 NW Calcium dye was prepared by dissolving the contents of one vial with […] Hank's Balanced Salt Solution containing 20 mM HEPES.
AP-18, stock 10 mM, prepare 3.5× compound dilution in a Compound Buffer (HBSS/20 mM HEPES/0.005% BSA)—final concentration 10 uM.
Preparation of Cinnamaldehyde (Agonist Addition): • FW=132.16 • Specific gravity=1.046 gm/cc • 1.32 gm/1.046 gm/cc=1.26 ml of stock • Add 1.74 ml DMSO=3.3 M stock • Working solution 4.5× (final 100 uM in Compound Buffer: HBSS/20 mM HEPES/0.005% BSA)
Compounds dilutions were prepared from 5 or 10 mM stock (100% DMSO): • Adjustments of volumes and concentrations were made at time of titration to reflect desired final assay concentrations. • Compounds were tested at either 20 μM three folds dilution 11 steps out or 30 μM two folds dilution 11 steps out. • 3 μl of diluted compound were transferred into Weidmann 384-well plate in duplicates side-by-side. • Compound plates were resuspended with 100 ul of HBSS/20 mM HEPES/0.005% BSA buffer (Compound Buffer): • column 1A-H: buffer/DMSO (bk) • column 2A-H: AP-18 (control antagonist for CHOK1 TRPA1 cells) • column 1I-P: ATP (control for CHOK1 teton cells) • column 2I-P: 2APB (control antagonist for CHOK1/TRPM8 cells).
Growth media was removed from the cell plates (20 ul) and 20 μl of the Replacement Buffer was added followed by addition of 25 μl of diluted dye. All three steps were performed using a Plate Washer BioTek 407. The plates were then incubated for 30′ at RT.
After incubation, both the cell and compound plates were brought to the FLIPR and 20 μl of the diluted compounds/antagonist/bk were transferred to the cell plates by the FLIPR. Plates were then incubated for 30′ at room temperature. After 30′ incubation, plates were returned to the FLIPR and 20 μl of 4.5× Cinnamaldehyde was added to the cell plates. During the compound addition as well as agonist addition, fluorescence readings were taken simultaneously from all 384 wells of the cell plate every 1.5 seconds. Five readings were taken to establish a stable baseline, then 20 μl of sample was rapidly (30 ul/sec) and simultaneously added to each well of the cell plate. The fluorescence was continuously monitored before, during and after sample/agonist addition for a total elapsed time of 100 seconds (compound addition) and 120 seconds (agonist addition). Responses (increase in peak fluorescence) in each well following agonist addition was determined. The initial fluorescence reading from each well, prior to ligand stimulation, was used a zero baseline value for the data from that well.

Chain of hTRPA1 (O75762 whole entry): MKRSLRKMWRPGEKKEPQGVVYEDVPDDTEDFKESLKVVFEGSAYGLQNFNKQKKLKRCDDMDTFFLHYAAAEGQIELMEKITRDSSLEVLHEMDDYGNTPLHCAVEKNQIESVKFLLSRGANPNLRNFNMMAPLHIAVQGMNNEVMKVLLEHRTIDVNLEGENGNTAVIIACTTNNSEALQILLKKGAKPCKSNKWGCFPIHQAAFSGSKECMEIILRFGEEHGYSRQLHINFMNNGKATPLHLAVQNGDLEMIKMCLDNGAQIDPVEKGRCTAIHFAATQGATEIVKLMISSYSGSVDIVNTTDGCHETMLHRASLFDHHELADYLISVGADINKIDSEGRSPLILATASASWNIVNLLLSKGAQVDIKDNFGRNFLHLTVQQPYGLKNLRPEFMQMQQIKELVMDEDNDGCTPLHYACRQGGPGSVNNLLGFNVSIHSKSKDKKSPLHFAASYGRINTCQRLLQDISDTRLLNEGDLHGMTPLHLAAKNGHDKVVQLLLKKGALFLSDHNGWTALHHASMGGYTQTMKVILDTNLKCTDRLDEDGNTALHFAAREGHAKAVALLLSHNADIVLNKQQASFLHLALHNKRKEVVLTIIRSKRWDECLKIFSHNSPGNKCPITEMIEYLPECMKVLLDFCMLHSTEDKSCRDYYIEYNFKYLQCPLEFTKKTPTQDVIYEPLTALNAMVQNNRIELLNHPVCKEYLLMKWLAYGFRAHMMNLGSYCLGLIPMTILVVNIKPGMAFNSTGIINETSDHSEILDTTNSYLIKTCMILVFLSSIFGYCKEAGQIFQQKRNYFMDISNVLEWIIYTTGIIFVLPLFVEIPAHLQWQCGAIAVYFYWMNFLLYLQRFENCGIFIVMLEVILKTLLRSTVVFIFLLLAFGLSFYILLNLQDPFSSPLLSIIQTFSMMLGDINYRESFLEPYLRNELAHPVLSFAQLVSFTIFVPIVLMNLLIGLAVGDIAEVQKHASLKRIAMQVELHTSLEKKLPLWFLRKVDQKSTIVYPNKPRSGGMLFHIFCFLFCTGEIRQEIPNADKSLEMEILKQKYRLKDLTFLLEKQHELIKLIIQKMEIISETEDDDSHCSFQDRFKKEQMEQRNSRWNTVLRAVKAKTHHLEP

Turning to `O=C(Nc1ccc(Cl)c(F)c1)O[C@@H](CN1CCS(=O)(=O)[C@H](c2cccc(C(F)(F)F)c2)C1)C(F)(F)F` [Example 20, (4-Chloro-3-fluorophenyl)-carbamic acid (S)-1-[(R)-1,1-dioxo-2-(3-trifluoromethylphenyl)-1λ^6-thiomorpholin-4-ylmethyl]-2,2,2-trifluoroethyl ester], the half-maximal inhibitory concentration (IC50) stood at 74.3 nM.
Consider `O=C(Nc1ccc(Cl)c(F)c1)O[C@@H](CN1CCO[C@H](c2ccc(C(F)(F)F)nc2)C1)C(F)(F)F` [Example 22, (4-Chloro-3-fluorophenyl)-carbamic acid (S)-2,2,2-trifluoro-1-[(R)-2-(6-trifluoromethyl-pyridin-3-yl)-morpholin-4-ylmethyl]-ethyl ester], for which the IC50 came out at 64.3 nM.
On to `O=C(Nc1ccc(Cl)c(F)c1)O[C@@H](CN1CCO[C@H](c2ccnc(C(F)(F)F)n2)C1)C(F)(F)F` [Example 24, (4-Chloro-3-fluorophenyl)-carbamic acid (S)-2,2,2-trifluoro-1-[(S)-2-(2-trifluoromethylpyrimidin-4-yl)-morpholin-4-ylmethyl]-ethyl ester hydrochloride], for which the half-maximal inhibitory concentration (IC50) was 71.1 nM.
In the case of `CC(C)c1nccc([C@@H]2CN(C[C@H](OC(=O)Nc3ccc(Cl)c(F)c3)C(F)(F)F)CCO2)n1` [Example 25, (4-Chloro-3-fluorophenyl)-carbamic acid (S)-2,2,2-trifluoro-1-[(S)-2-(2-isopropylpyrimidin-4-yl)-morpholin-4-ylmethyl]-ethyl ester hydrochloride], the IC50 came to 103 nM.
For `CN1CCN(C[C@H](OC(=O)Nc2ccc(Cl)cc2)C(F)(F)F)CC1c1ccccc1` (stereo partly drawn) [Example 27, (4-Chlorophenyl)-carbamic acid (S)-2,2,2-trifluoro-1-(4-methyl-3-phenylpiperazin-1-ylmethyl)-ethyl ester hydrochloride], the 50% inhibitory concentration (IC50) turned out to be 2620 nM.
The result for `CC(=O)N1CCN(C[C@H](OC(=O)Nc2ccc(Cl)cc2)C(F)(F)F)CC1c1ccccc1` (stereo partly drawn) [Example 28, (4-Chlorophenyl)-carbamic acid (S)-1-(4-acetyl-3-phenylpiperazin-1-ylmethyl)-2,2,2-trifluoroethyl ester hydrochloride] reads 4530 nM.
With `O=C(Nc1ccc(Cl)cc1)O[C@@H](CN1CCO[C@H](c2ccc(C(F)(F)F)cc2)C1)C(F)(F)F` [Example 29, (4-Chlorophenyl)-carbamic acid (S)-2,2,2-trifluoro-1-[(R)-2-(4-trifluoromethylphenyl)-morpholin-4-ylmethyl]-ethyl ester hydrochloride], the IC50 stood at 7.64 nM.
For `O=C(Nc1ccc(Cl)c(F)c1)O[C@@H](CN1CCO[C@H](c2ccc(C(F)(F)F)cc2)C1)C(F)(F)F` [Example 31, (4-Chloro-3-fluorophenyl)carbamic acid (S)-2,2,2-trifluoro-1-[(R)-2-(4-trifluoromethylphenyl)-morpholin-4-ylmethyl]-ethyl ester hydrochloride] the value was 34.6 nM.
The result for `O=C(Nc1ccc(Cl)c(F)c1)O[C@@H](CN1CCO[C@@H](c2ccc(C(F)(F)F)cc2)C1)C(F)(F)F` [Example 32, (4-Chloro-3-fluorophenyl)-carbamic acid (S)-2,2,2-trifluoro-1-[(S)-2-(4-trifluoromethylphenyl)-morpholin-4-ylmethyl]-ethyl ester hydrochloride] reads 451 nM.
The result for `Cc1ccc(NC(=O)O[C@@H](CN2CCOC(c3ccc(C(F)(F)F)cc3)C2)C(F)(F)F)cc1Cl` (stereo partly drawn) [Example 33, (3-Chloro-4-methylphenyl)-carbamic acid (S)-2,2,2-trifluoro-1-[2-(4-trifluoromethylphenyl)-morpholin-4-ylmethyl]-ethyl ester hydrochloride] reads 1630 nM.
Turning to `O=C(Nc1ccc(Cl)c(F)c1)O[C@@H](CN1CCO[C@H](c2ccc(F)c(F)c2)C1)C(F)(F)F` [Example 34, (4-Chloro-3-fluorophenyl)-carbamic acid (S)-1-[(R)-2-(3,4-difluorophenyl)-morpholin-4-ylmethyl]-2,2,2-trifluoroethyl ester hydrochloride], the 50% inhibitory concentration (IC50) stood at 37.6 nM.
The result for `O=C(Nc1ccc(Cl)c(F)c1)O[C@@H](CN1CCO[C@H](c2ccc(F)cc2)C1)C(F)(F)F` [Example 36, (4-Chloro-3-fluorophenyl)carbamic acid (S)-1-[(R)-2-(4-fluorophenyl)-morpholin-4-ylmethyl]-2,2,2-trifluoroethyl ester hydrochloride] reads 92.2 nM; that for `Cc1ccc(NC(=O)O[C@@H](CN2CCOC(c3ccc(F)c(F)c3)C2)C(F)(F)F)cc1` (stereo partly drawn) [Example 37, p-Tolylcarbamic acid (S)-1-[2-(3,4-difluorophenyl)-morpholin-4-ylmethyl]-2,2,2-trifluoroethyl ester hydrochloride], 458 nM.
For `O=C(Nc1ccc(Cl)nc1)O[C@@H](CN1CCOC(c2cccc(C(F)(F)F)c2)C1)C(F)(F)F` (stereo partly drawn) [Example 38, (6-Chloropyridin-3-yl)carbamic acid (S)-2,2,2-trifluoro-1-[2-3-trifluoromethylphenyl]-morpholin-4-ylmethyl]-ethyl ester hydrochloride] the value was 78 nM.
The result for `O=C(C[C@@H](CN1CCO[C@H](c2cccc(C(F)(F)F)c2)C1)C(F)(F)F)Nc1ccc(Cl)c(F)c1` [Example 39, (S)—N-(4-chloro-3-fluorophenyl)-4,4,4-trifluoro-3-[(R)-2-(3-trifluoromethylphenyl)-morpholin-4-ylmethyl]-butyramide] reads 73.8 nM; that for `O=C(C[C@@H](CN1CCO[C@@H](c2cccc(C(F)(F)F)c2)C1)C(F)(F)F)Nc1ccc(Cl)c(F)c1` [Example 40, (S)—N-(4-chloro-3-fluorophenyl)-4,4,4-trifluoro-3-[(S)-2-(3-trifluoromethylphenyl)-morpholin-4-ylmethyl]-butyramide], 3060 nM; that for `O=C(Nc1ccc(Cl)cc1)OC(CN1CCOCC1)C(F)(F)F` (stereo not shown) [Example 41, (4-Chlorophenyl)-carbamic acid 2,2,2-trifluoro-1-morpholin-4-ylmethyl-ethyl ester], 2140 nM.
As to `O=C(Nc1ccc(Cl)cc1)O[C@@H](CN1CCOC(c2ccc(F)cc2)C1)C(F)(F)F` (stereo partly drawn) [Example 42, (4-Chlorophenyl)carbamic acid (S)-2,2,2-trifluoro-1-[2-(4-fluorophenyl)-morpholin-4-ylmethyl]-ethyl ester hydrochloride], the concentration for half-maximal inhibition (IC50) was determined as 83.4 nM.
In the case of `O=C(Nc1ccc(Cl)cc1)O[C@@H](CN1CCOC(c2cccc(Cl)c2)C1)C(F)(F)F` (stereo partly drawn) [Example 43, (4-Chlorophenyl)-carbamic acid (S)-2,2,2-trifluoro-1-[2-(3-chlorophenyl)-morpholin-4-ylmethyl]-ethyl ester hydrochloride], the IC50 worked out at 17.8 nM.
For `O=C(Nc1ccc(Cl)cc1)O[C@@H](CN1CCOC(c2cc(Cl)cc(Cl)c2)C1)C(F)(F)F` (stereo partly drawn) [Example 44, (4-Chlorophenyl)-carbamic acid (S)-2,2,2-trifluoro-1-[2-(3,5-dichlorophenyl)-morpholin-4-ylmethyl]-ethyl ester hydrochloride] the value was 10.3 nM; for `O=C(Nc1ccc(Cl)cc1)O[C@@H](CN1CCO[C@H](c2cc(Cl)cc(Cl)c2)C1)C(F)(F)F` [Example 45, (4-Chlorophenyl)carbamic acid (S)-1-[(R)-2-(3,5-dichlorophenyl)-morpholin-4-ylmethyl]-2,2,2-trifluoroethyl ester hydrochloride], 8.09 nM.
In the case of `O=C(Nc1ccc(Cl)c(F)c1)O[C@@H](CN1CCO[C@H](c2cc(Cl)cc(Cl)c2)C1)C(F)(F)F` [Example 46, (4-Chloro-3-fluorophenyl)carbamic acid (S)-1-[(R)-2-(3,5-dichlorophenyl)-morpholin-4-ylmethyl]-2,2,2-trifluoroethyl ester hydrochloride], the IC50 is 16.9 nM.
